Where two headings read alike, the source gives them in different places.

Data set [1] deals with Trypanosoma brucei brucei laboratory strain TC 221. In words: Trypanosoma brucei brucei trypomastigote growth inhibition (Alamar Blue). The class given is cell-based. The procedure: [22] Trypomastigote forms of Trypanosoma brucei brucei laboratory strain TC 221 were cultured in complete Baltz medium [80 mL Baltz medium basic solution, 0.8 mL 2 mercaptoethanol stock solution (20 mM), 0.8 mL penicillin/streptomycin (10,000 U/mL), 16 mL FCS (inactivated for 30 min at 56 °C). Baltz medium basic solution is composed of the following: 500 mL MEM with Earle’s salts and L-glutamine, 3 g Hepes, 0.5 g monohydrate glucose, 0.110 g sodium pyruvate, 0.007 g hypoxanthine, 0.002 g thymidine, 0.0107 g adenosine, 0.0141 g bathocuproine disulfonic acid disodium salt, 0.146 g glutamine, 5 mL sterile non-essential amino acid concentrate (100×, pH 7.5). A defined number of parasites ([…]) were exposed in test chambers of 96-well plates to various concentrations of the test substances (previously dissolved in DMSO) to make a final volume of 200 μL in duplicates. Positive (trypanosomes in culture medium) and negative controls (test substance without trypanosomes) were run simultaneously with each plate. The plates were then incubated at 37 °C in an atmosphere of 5% CO2 for a total time period of 72 h. After 24 h, 20 μL of Alamar Blue was added. […]. The first reading was done at 48 h and subsequently at 72 h. The effect of the test substances was quantified in IC50 values by linear interpolation of three independent measurements.

The nature of another data set: in vitro. The following applies: human.
Data set [2] deals with Leishmania major promastigotes. In words: Leishmania major promastigote growth inhibition (Alamar Blue). The data set is classed as cell-based.
Experimental: Leishmania major promastigotes were seeded at a cell density of 1 × 10^7 cells/mL into 96-well plates in complete medium (RPMI with NaHCO3, 10% FCS, 2 mM glutamine, 10 mM Hepes pH 7.2, 100 U/mL penicillin, 50 μg/mL gentamicin, 50 mM 2-mercaptoethanol) without phenol red (200 mL), in the absence or presence of different concentrations of the compounds. These were then incubated for 24 h at 26 °C, 5% CO2 and 95% humidity. Following the addition of 20 mL of Alamar Blue, the plates were incubated again and the optical densities (ODs) measured 24 h and 48 h later with an enzyme-linked immunosorbent assay (ELISA) reader (Multiskan Ascent, Germany) using a test wavelength of 540 nm and a reference wavelength of 630 nm. Absorbance in the absence of compounds was set as 100% of growth. Amphotericin B was used as a reference compound and positive control. The effects of cell density, incubation time and the concentration of DMSO were examined in control experiments. The final concentration of DMSO in the medium never exceeded 1% vol/vol and had no effect on the proliferation of extracellular or intracellular parasites. For each experiment, each drug concentration was assayed in duplicate wells [31]
Data set [3] in a line: Cytotoxicity against J774.1 macrophages (Alamar Blue). The following applies: mouse.
Experimental: (§1) Following the addition of 20 μL of Alamar Blue, the plates were incubated and the ODs measured at 24 h, 48 h and 72 h.
The nature of data set [4]: Cytotoxicity against 293T kidney epithelial cells (Alamar Blue). The conditions noted are these: human.
Experimental: as §1

Experimental for in vitro: as §1

As to `CN[C@@H]1C[C@H]2O[C@@](C)([C@@H]1OC)n1c3ccccc3c3c4c(c5c6ccccc6n2c5c31)C(=O)NC4` [staurosporine], the IC50 in data set [1] (reading at 48 h, read-out: IC50 Trypanosoma brucei brucei (48 h)) came out at 0.022 µM; in data set [1] (reading at 72 h, read-out: IC50 Trypanosoma brucei brucei (72 h)), 0.035 µM; in “in vitro”, 1.3 µM.
Take `CC(C)[C@@H]1NC(=O)[C@H](C)OC(=O)[C@@H](C(C)C)NC(=O)[C@@H](C(C)C)OC(=O)[C@H](C(C)C)NC(=O)[C@H](C)OC(=O)[C@@H](C(C)C)NC(=O)[C@@H](C(C)C)OC(=O)[C@H](C(C)C)NC(=O)[C@H](C)OC(=O)[C@@H](C(C)C)NC(=O)[C@@H](C(C)C)OC1=O` [valinomycin]: the IC50 in data set [2] is < 0.11 µM; in data set [1] (48 h, read-out: IC50 Trypanosoma brucei brucei (48 h)), 0.0032 µM; in data set [1] (72 h, read-out: IC50 Trypanosoma brucei brucei (72 h)) it was 0.0036 µM. In addition, the IC50 at 24 h in data set [3] is < 0.1 µM; in data set [4], 11.2 µM.

For the origin of these results see paper PMC2852844, “Anti-Parasitic Compounds from Streptomyces sp. Strains Isolated from Mediterranean Sponges” (Marine Drugs, 2010).
